In experiment [1] the target is T1, Protein skinhead-1 (Caenorhabditis elegans, UniProt P34707).
T1 sequence (P34707 whole entry): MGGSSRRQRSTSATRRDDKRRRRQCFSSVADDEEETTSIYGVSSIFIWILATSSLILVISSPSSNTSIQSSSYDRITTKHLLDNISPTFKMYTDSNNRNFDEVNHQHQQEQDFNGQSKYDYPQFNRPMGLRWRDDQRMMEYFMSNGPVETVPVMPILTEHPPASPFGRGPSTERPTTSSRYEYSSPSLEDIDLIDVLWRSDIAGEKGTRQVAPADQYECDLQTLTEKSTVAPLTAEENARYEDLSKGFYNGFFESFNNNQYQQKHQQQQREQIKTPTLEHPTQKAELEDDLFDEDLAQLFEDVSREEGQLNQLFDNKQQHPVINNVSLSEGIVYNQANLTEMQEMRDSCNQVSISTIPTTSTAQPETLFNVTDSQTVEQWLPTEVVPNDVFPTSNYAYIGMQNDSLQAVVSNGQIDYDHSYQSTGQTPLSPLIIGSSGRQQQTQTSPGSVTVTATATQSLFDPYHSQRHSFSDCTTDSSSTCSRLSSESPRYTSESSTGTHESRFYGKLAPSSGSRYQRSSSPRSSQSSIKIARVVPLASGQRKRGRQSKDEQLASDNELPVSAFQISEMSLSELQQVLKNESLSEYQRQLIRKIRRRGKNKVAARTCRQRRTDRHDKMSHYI
The experiment is classed as functional.

The test system of experiment [2] is Streptococcus. In words: Group A Streptococcus viability loss, dose response, counter-screen for streptokinase expression inhibitor project, luminescence, BacTiterGlo (AID 1915).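 Note: potency for reduction of bacterial viability or growth.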 It counts as functional, organism-based. (In general: The purpose of a counterscreen is to sort out artefacts and off-target activity.)
Experiment [3] deals with T2, Histone-lysine N-methyltransferase NSD2 (Homo sapiens, UniProt O96028).
T2 sequence (O96028 whole entry): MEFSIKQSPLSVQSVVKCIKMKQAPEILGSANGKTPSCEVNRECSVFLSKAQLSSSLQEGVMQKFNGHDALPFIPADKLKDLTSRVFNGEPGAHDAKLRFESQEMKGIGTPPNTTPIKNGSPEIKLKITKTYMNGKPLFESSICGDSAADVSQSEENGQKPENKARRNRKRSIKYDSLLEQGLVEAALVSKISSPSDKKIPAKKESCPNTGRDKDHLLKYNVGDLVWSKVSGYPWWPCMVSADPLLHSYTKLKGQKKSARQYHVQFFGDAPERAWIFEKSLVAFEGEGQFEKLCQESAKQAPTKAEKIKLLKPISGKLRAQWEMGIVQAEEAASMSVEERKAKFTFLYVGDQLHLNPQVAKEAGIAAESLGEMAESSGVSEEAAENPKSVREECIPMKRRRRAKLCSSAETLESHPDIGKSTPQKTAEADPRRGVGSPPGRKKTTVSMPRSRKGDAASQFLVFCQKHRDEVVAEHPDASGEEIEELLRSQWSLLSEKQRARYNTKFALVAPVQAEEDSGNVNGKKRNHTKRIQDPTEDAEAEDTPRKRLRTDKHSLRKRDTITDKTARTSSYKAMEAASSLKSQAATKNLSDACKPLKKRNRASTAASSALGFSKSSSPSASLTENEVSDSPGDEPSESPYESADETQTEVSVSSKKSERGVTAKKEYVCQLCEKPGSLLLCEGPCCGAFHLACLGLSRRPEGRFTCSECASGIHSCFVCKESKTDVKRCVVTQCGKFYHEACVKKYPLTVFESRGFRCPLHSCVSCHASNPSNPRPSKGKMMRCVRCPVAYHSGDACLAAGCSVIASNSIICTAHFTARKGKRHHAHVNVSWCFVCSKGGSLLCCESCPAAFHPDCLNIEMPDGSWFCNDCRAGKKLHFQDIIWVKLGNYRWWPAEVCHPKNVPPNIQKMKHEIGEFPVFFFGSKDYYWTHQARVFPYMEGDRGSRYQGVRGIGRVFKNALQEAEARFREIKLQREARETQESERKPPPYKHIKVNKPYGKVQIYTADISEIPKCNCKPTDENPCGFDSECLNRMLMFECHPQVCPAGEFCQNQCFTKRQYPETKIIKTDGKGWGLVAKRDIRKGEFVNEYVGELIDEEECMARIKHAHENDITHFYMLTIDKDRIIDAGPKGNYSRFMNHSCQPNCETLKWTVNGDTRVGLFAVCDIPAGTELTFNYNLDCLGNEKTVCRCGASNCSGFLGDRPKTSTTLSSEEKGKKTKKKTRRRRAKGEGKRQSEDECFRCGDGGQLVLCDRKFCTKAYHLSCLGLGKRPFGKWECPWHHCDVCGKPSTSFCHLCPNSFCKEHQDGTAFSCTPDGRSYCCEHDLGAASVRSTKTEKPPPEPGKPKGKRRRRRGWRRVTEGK
The experiment is classed as biochemical.

Experiment [4] has as its target T3, Hexokinase HKDC1 (Homo sapiens, UniProt Q2TB90).
T3 sequence (Q2TB90 whole entry): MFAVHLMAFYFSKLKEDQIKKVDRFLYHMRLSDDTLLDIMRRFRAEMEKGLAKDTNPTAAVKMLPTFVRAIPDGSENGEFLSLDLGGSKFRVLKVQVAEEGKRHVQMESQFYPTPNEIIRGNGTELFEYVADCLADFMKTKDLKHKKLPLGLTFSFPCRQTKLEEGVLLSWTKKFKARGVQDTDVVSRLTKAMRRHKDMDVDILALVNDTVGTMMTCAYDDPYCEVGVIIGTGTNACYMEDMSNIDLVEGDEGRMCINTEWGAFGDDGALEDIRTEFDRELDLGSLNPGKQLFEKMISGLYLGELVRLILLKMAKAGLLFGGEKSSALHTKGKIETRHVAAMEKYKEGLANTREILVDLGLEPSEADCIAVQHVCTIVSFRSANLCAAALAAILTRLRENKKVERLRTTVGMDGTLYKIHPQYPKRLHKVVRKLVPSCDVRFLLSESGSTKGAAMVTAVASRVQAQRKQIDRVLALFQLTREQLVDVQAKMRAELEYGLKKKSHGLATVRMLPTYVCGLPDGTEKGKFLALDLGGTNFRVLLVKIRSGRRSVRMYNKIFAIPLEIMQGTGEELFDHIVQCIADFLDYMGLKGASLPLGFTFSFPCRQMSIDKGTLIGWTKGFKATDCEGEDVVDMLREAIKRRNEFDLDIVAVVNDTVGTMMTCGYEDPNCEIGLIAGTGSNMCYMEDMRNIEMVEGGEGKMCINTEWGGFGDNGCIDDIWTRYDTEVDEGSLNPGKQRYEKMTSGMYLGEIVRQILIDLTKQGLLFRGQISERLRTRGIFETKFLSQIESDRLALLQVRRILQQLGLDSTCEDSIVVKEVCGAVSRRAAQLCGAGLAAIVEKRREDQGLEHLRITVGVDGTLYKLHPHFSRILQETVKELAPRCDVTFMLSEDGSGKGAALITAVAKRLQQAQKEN
In words: HKDC1 hexokinase inhibitors, dose response, biochemical, W721R variant (AID 504729). It counts as functional.

From ChEMBL document CHEMBL1201862, “PubChem BioAssay data set” (2004) come the findings set out here.

Active and inactive are the calls of the source. Some results are limits rather than exact numbers.

For orientation: IC50 means the concentration needed to halve the response being measured. As a reminder, the EC50 is the concentration that produces a half-maximal response. As usually defined, the AC50 is the concentration at which the activity in the assay is half-maximal.

With `COc1ccc(-c2cc(-c3ccc(C)cc3)[nH]n2)c(O)c1`, in experiment [1], the IC50 was > 100 µM (inactive). Moreover, the EC50 in experiment [2] was 15.8 µM (active).

Turning to `Cc1ccccc1NC1=C/C(=N\S(=O)(=O)c2ccc(C(=O)O)cc2)c2ccccc2C1=O`, in experiment [3], the AC50 is 0.117 µM (active). The EC50 in experiment [2] is 5.01 µM (active). Moreover, in experiment [4], the IC50 was 2.53 µM (active).

In the case of `COC(=O)C[C@]1(C(=O)OC)CN(C#N)N(c2ccc(Cl)cc2)C12c1ccccc1-c1ccccc12`, the IC50 in experiment [4] is 3.35 µM (active).

For the molecule `CCCCn1c(NC(=O)c2ccco2)c(C(=O)OCC)c2nc3ccccc3nc21`, the AC50 in experiment [3] is 2.94 µM (active).

On to `O=C(Nc1ccc(C#Cc2ccccc2)cc1)C1CC1`, for which the IC50 in experiment [1] was > 100 µM (inactive).
